Source: BindingDB's records for doi:10.1021/jm301258w (University of Innsbruck, 2012)
One block for each compound: values may come before it.

Experiments:
[1] = Agonist activity at human dopamine D3 receptor expressed in CHOp cells assessed as stimulation of mitogenesis incubated for 24 hrs by [3H]thymidine incorporation assay
[2] = Antagonist activity at human dopamine D3 receptor expressed in CHOp cells assessed as inhibition of quinpirol-induced mitogenesis incubated for 24 hrs by [3H]thymidine incorporation assay
[3] = Antagonist activity at human dopamine D2 receptor expressed in CHOp cells assessed as inhibition of quinpirol-induced mitogenesis incubated for 24 hrs by [3H]thymidine incorporation assay

SMILES: CCCN(CCc1ccccc1)CCc1cccc(O)c1
EC50 [1]: 5.3 nM

SMILES: Oc1cccc(CCN(CCc2ccccc2)CC2CCC2)c1
EC50 [1]: > 10000 nM
IC50 [2]: 953 nM
IC50 [3]: 1650 nM

SMILES: Oc1cccc(CCN(CCc2ccccc2)CC2CC2)c1
EC50 [1]: 32 nM

IC50 [3]: 1250 nM
SMILES: CCCCCCN(CCc1ccccc1)CCc1cccc(O)c1
